59 compounds from paper PMC12040169 (PLOS Biology, 2025) can be followed below.

Structures are written as SMILES.

A short description of this data set: in vitro. To be noted: human, hela cells, % viability.
Regarding `O=C1CC(c2ccco2)Cc2c1cnn2-c1nc2ccccc2s1` (centres unmarked) [CBK269292], the viability (usually a read-out of living cells in per cent, often relative to untreated cells) at 28.5 h, 10 µM was found to be 81.4%. The value for `CCN(CC(=O)N1CCN(C)CC1)S(=O)(=O)c1cc(Cl)ccc1Cl` [CBK269297] was 104%; that for `CC1CN(Cc2nc3c(c(=O)n(C)c(=O)n3C)n2CCCO)CC(C)O1` (centres unmarked) [CBK269298] was 99%. The same measure for `CCCCOc1ccccc1NC(=O)CC1NCCNC1=O` (centres unmarked) [CBK269299]: 94.7%; for `O=S(=O)(N1CCOCC1)N1CCN(CC(O)COc2ccc(-c3ccccc3)cc2)CC1` (centres unmarked) [CBK269301]: 106%. On to `CC(=O)Nc1ccc(Oc2c(F)c(F)c(/C=C/CN3CCOCC3)c(F)c2F)cc1` [CBK269302C], for which the viability at 28.5 h, 10 µM turned out to be 89%. With `O=[N+]([O-])c1ccc(S(=O)(=O)N2CCC3(CC2)OCCO3)cc1` [CBK269303], the viability at 28.5 h, 10 µM worked out at 97.5%. Regarding `CC(C)(C)C(=O)NC(=S)NNC(=O)c1ccncc1` [CBK269304], the viability at 28.5 h, 10 µM amounted to 90.6%. Consider `O=C(O)c1cccnc1SC1CC(=O)N(c2cccc(Cl)c2Cl)C1=O` (centres unmarked) [CBK269306], for which the viability at 28.5 h, 10 µM was 110%. For `COC(=O)c1c(NC(=O)CC2Nc3ccccc3NC2=O)sc2c1CCC2` (centres unmarked) [CBK269307A], the viability at 28.5 h, 10 µM was 93.7%.

Take `CS(=O)(=O)N1CCCC(C(=O)NCc2ccccn2)C1` (centres unmarked) [CBK269308]: the viability at 28.5 h, 10 µM was 101%.

Take `CCOc1cc(CNCCO)c(Cl)cc1OC` [CBK269309C]: the viability at 28.5 h, 10 µM worked out at 102%.

Regarding `CNc1cc(N2CCN(S(=O)(=O)N(C)C)CC2)ccc1[N+](=O)[O-]` [CBK269311], the viability at 28.5 h, 10 µM turned out to be 89.8%.

Take `Cc1ccc(-c2noc(CN(C(=O)CCc3ccccc3)C(C)C)n2)cc1` [CBK269313]: the viability at 28.5 h, 10 µM was determined as 99.3%. The same measure for `Cc1ccc(SCc2ccc(C(=O)NCCN3CCOCC3)cc2)cc1` [CBK269314]: 98.7%; for `CC(Sc1ccc(Cl)cc1)C(=O)NCCN1CCOCC1` (centres unmarked) [CBK269316]: 111%.

For the compound `CN(C)CCCNc1oc(/C=C/c2cccs2)nc1C#N` [CBK269317], the viability at 28.5 h, 10 µM is 86.7%. In the case of `CCN(CC)CCN1C(=O)C(O)=C(C(=O)c2cccs2)C1c1ccccn1` (centres unmarked) [CBK269319], the viability at 28.5 h, 10 µM stood at 76.3%. The value for `NS(=O)(=O)c1ccc(NC(=O)CCSc2ccc(Cl)cc2)cc1` [CBK269322] was 94.4%; that for `Nc1c(C(=O)NCc2ccco2)c2nc3ccccc3nc2n1C1CCCC1` [CBK269323] was 106%. The value for `COCCN(Cc1cc2ccc(C)cc2nc1O)C(=O)c1cccs1` [CBK269324] was 100%; that for `CCOC(=O)N1CCN(Cc2nc3c(c(=O)n(C)c(=O)n3C)n2Cc2ccccc2C)CC1` [CBK269325] was 91.8%; that for `Cc1ccc(CSCC(=O)NCCN2CCOCC2)cc1` [CBK269327] was 90.4%.

With `CC(Sc1ccccc1)C(=O)NCCN1CCOCC1` (centres unmarked) [CBK269332], the viability at 28.5 h, 10 µM turned out to be 95.9%.

As to `Cc1ccc(OCCSc2nnc(N)[nH]2)cc1` [CBK269334], the viability at 28.5 h, 10 µM was determined as 98.9%. The same measure for `Cc1ccc(C(=O)CC(C(=O)O)c2c(C)[nH]c3ccccc23)cc1` (centres unmarked) [CBK269337]: 96.1%; for `COC(=O)C(CC(=O)c1ccc(Br)cc1)n1cccn1` (centres unmarked) [CBK269338]: 104%. `COc1ccccc1CC(=O)N(Cc1nc(-c2cccc(C)c2)no1)C(C)C` [CBK269345]: the viability at 28.5 h, 10 µM came to 95.7%. The same measure for `O=C(CSc1nnc(-c2ccncc2)n1Cc1ccccc1)Nc1ccc(Cl)cc1` [CBK269346]: 97.3%; for `COc1ccc(S(=O)(=O)NC(C)C(=O)NCc2ccncc2)cc1C` (centres unmarked) [CBK269347]: 101%; for `CC1CN(Cc2nc3c(c(=O)n(C)c(=O)n3C)n2CCCc2ccccc2)CC(C)O1` (centres unmarked) [CBK269349]: 91.7%. With `O=C(Nc1ccccc1C(=O)NCc1ccccc1)c1cccc(F)c1` [CBK269351], the viability at 28.5 h, 10 µM was found to be 88.9%.

Take `O=C(CCSc1ccc(Cl)cc1)NCCN1CCOCC1` [CBK269352]: the viability at 28.5 h, 10 µM came to 98.2%.

Regarding `Cc1ccnc(Sc2nc3c(c(=O)[nH]c(=O)n3C)n2CCCc2ccccc2)n1` [CBK269353], the viability at 28.5 h, 10 µM was determined as 79.4%. As to `CCOC(=O)c1cccc(NC(=O)CSc2nc3cccnc3[nH]2)c1` [CBK269354], the viability at 28.5 h, 10 µM turned out to be 95.1%. The value for `COc1ccc(C)cc1S(=O)(=O)N(CC(=O)N1CCN(C)CC1)c1cccc(C(F)(F)F)c1` [CBK269355] was 96.2%; that for `COc1nc2ccccc2nc1CCC(=O)O` [CBK269356] was 89.1%; that for `OCCn1ncc2c(SC3CCCCC3)ncnc21` [CBK269358] was 87.8%. As for `N#Cc1c(NC(=O)C(=O)NCc2ccccn2)sc2c1CCCC2` [CBK269360], the viability at 28.5 h, 10 µM was 95.9%. The value for `O=S(=O)(Nc1cccnc1)N1CCOCC1` [CBK269362] was 97.9%.

As for `CCCn1c(CN2CCN(CCO)CC2)nc2ccccc21` [CBK269363], the viability at 28.5 h, 10 µM came out at 110%. `Cc1cccnc1NC(=O)c1ccc(N2CCN(C)CC2)c([N+](=O)[O-])c1` [CBK269366]: the viability at 28.5 h, 10 µM was determined as 95.4%. Take `Cc1ccccc1OC(C)C(=O)Nc1ccc(S(=O)(=O)N2CCCC2)cc1` (centres unmarked) [CBK269367]: the viability at 28.5 h, 10 µM was 89.7%. With `Cc1cccc(N2CCN(CC(=O)Nc3ccc(S(N)(=O)=O)cc3)CC2)c1C` [CBK269369], the viability at 28.5 h, 10 µM was found to be 96.8%. The value for `O=S(=O)(N1CCCCC1)N1CCN(CC(O)COc2ccc(-c3ccccc3)cc2)CC1` (centres unmarked) [CBK269370] was 94.9%. For `Cc1cc(C)nc(-n2ncc3c2CC(c2cccs2)CC3=O)n1` (centres unmarked) [CBK269371], the viability at 28.5 h, 10 µM worked out at 107%. The same measure for `COc1ccc(/C=C/c2nc3ccccc3s2)cc1S(=O)(=O)N1CCOCC1` [CBK269373]: 89.9%; for `C=CCn1c(CCCNC=O)nc2ccccc21` [CBK269375]: 94.2%; for `Cc1ccc(N2C(=O)CC(Sc3ncccc3C(=O)O)C2=O)c(C)c1` (centres unmarked) [CBK269377]: 91.9%. The same measure for `C=CCNS(=O)(=O)c1ccc(NC(=O)Cc2cccc3ccccc23)cc1` [CBK269379]: 109%; for `O=C(O)c1cc(C(=O)O)n(Cc2ccccc2Cl)n1` [CBK269381]: 88.1%; for `CCOC(=O)Cn1c(CN2CCCCC2C)nc2c1c(=O)n(C)c(=O)n2C` (centres unmarked) [CBK269382]: 95.1%. On to `Cc1nc(N)sc1-c1nnc(SC/C=C/c2ccccc2)n1C` [CBK269383], for which the viability at 28.5 h, 10 µM was determined as 81.7%. The value for `N#CC(C(=O)CN1CCN(Cc2ccccc2)CC1)c1ccccc1` (centres unmarked) [CBK269386] was 99.6%; that for `O=C(Nc1cccc2ccccc12)C(c1ccccc1)N1CCOCC1` (centres unmarked) [CBK269388] was 102%. The same measure for `C=CCn1c(COc2cccc(Cl)c2)nnc1SCC(=O)O` [CBK269389]: 90.2%; for `O=C(Nc1ccccc1[N+](=O)[O-])C(c1ccccc1)N1CCOCC1` (centres unmarked) [CBK269390]: 94%; for `O=S(=O)(Nc1ccccn1)N1CCOCC1` [CBK269391]: 86.9%. As for `O=CNCCCc1nc2ccccc2n1CCc1ccccc1` [CBK269393], the viability at 28.5 h, 10 µM was determined as 89.5%.
